Drawing on PubChem BioAssay (NCI), this text covers GI50 and TGI for 10 compounds.

Holding throughout (assay): NCI-60 cell line screen, 48 h
Test [1] deals with HCT-15 colon.
For test [2], the system named is KM12 colon.
In test [3] the test system is SNB-19 CNS.
For test [4], the system named is UO-31 renal.
Test [5] concerns SF-539 CNS.
Test [6] has as its system COLO 205 colon.
For test [7], the system named is U251 CNS.
For test [8], the system named is ACHN renal.
Test [9] relates to HOP-62 NSCLC.
In test [10] the test system is NCI-H226 lung.

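Results reflect a 48-hour exposure of cells in 96-well plates to compound at five concentrations. At the GI50, growth is halved. TGI: total growth inhibition.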 Some results are limits rather than exact numbers.

Regarding `COc1ccc(/C=C\c2cc(OC)c(OC)c(OC)c2)c(NS(=O)(=O)c2ccc(C)cc2)c1O`, the GI50 is 0.0395 µM in test [1]; 0.0383 µM in [2]; 0.0549 µM in test [3]; 0.335 µM in [4]; 0.0237 µM in test [5]; 0.723 µM in [6]. Moreover, the values for the GI50 in [7], in [8] and in [9] were 0.0418 µM, 0.0874 µM and 1.29 µM, respectively. The TGI in test [1] is over 81.6 µM; in test [3] it was over 100 µM; in [4] it was over 65.8 µM; in test [5] it was 0.0641 µM; in test [6], 3.89 µM; in test [7], over 100 µM. For the same compound, the TGI in [8] is over 59.9 µM; in test [9], over 100 µM.
As to `CC1=C2C(c3ccccc3)(c3ccccc3)C3C=CC2(C=N3)N(C(=O)NC2CCCCC2)C1=O` (stereo not given), the TGI in test [1] was 30.4 µM; in test [2] it was 32.1 µM; in test [3] it was 32.9 µM; in test [4], 27.3 µM; in [5] it was 30.7 µM; in test [6] it was 29.3 µM. Moreover, the TGI in [7] amounted to 30.6 µM; in test [8], 33.8 µM; in test [9], 31.7 µM.
`CCOC(=O)C(C[Si](C)(C)C)P(=O)(OCC)OCC` (stereo not given): the TGI in test [1], in [2], in [4], in [5], in test [10] and in [6] was over 100 µM each time. Further, the TGI in test [7], in test [8] and in test [9] was over 100 µM each time.
With `O=[N+]([O-])c1ccccc1C1N2CCCCC2[C@@H]2c3[nH]c4ccccc4c3CCN12` (stereo not given in full), the TGI in [1] was 29.4 µM; in test [3], 33.4 µM; in test [4] it was 23.5 µM; in [5], 25.1 µM; in test [6], 25.8 µM; in test [7], 31.3 µM. Besides, the TGI worked out at 31.3 µM in [8] and 29.2 µM in test [9].
On to `COc1ccc2c(c1)OC13Oc4cc(OC)ccc4C=C1CCCC3=C2`, for which the GI50 in test [1] is over 100 µM; in test [2], 18.7 µM; in [3] it was over 100 µM; in test [5], over 100 µM; in [10], over 100 µM; in test [6], over 100 µM. The GI50 in [7], in test [8] and in test [9] was over 100 µM throughout. Moreover, the TGI in test [1], in test [2], in test [3], in test [5], in test [10] and in [6] was over 100 µM each time. Moreover, the TGI in test [7], in test [8] and in [9] was over 100 µM each time.
With `O=[N+]([O-])c1ccc(Cl)c(C2SCc3nc4ccccc4n32)c1` (stereo not given), the TGI in [2] was over 100 µM; in [3], over 100 µM; in test [4], 66.1 µM; in test [5] it was over 100 µM; in test [10], 69.1 µM; in test [6], over 100 µM. The TGI in test [7] and in test [8] was over 100 µM throughout.
As to `c1ccc(-c2nc(N3CCNCC3)c3nc(-c4ccccc4)oc3n2)cc1`, the GI50 in test [1] was 1.66 µM; in test [2] it was 1.91 µM; in [3], 1.74 µM; in test [4], 1.53 µM; in test [5] it was 1.72 µM; in test [6] it was 2.06 µM. Also, the results for the GI50 in test [8] and in test [9] were 1.71 µM and 1.98 µM, respectively. Besides, the TGI was determined as 3.18 µM in [1]; 3.6 µM in [2]; 3.34 µM in [3]; 2.91 µM in [4]; 3.13 µM in test [5]; 4.12 µM in [6]. Besides, the TGI in [8] was found to be 3.09 µM; in [9], 3.94 µM.
As for `O=C1C(c2ccccc2)=C(c2ccccc2)C(c2ccc(CCCCCCc3ccc(C4=C(c5ccccc5)C(=O)C(c5ccccc5)=C4c4ccccc4)cc3)cc2)=C1c1ccccc1`, the TGI in test [1], in test [2], in test [3], in [4], in [5] and in [6] was over 100 µM throughout. In addition, the TGI in test [7], in [8] and in [9] was over 100 µM each time.
Turning to `CC(C)(C)CC(C)(C)c1ccc(OCCOCCSC(=N)N)cc1`, the GI50 was 1.8 µM in test [1]; 1.78 µM in [2]; 2.17 µM in [3]; 1.75 µM in [4]; 1.81 µM in test [5]; 1.65 µM in [6]. Further, the GI50 in test [7] was 1.65 µM; in test [8] it was 1.72 µM; in test [9], 1.87 µM. Besides, the TGI was found to be 3.85 µM in [1]; 3.33 µM in test [2]; 5.58 µM in test [3]; 3.91 µM in test [4]; 3.31 µM in [5]; 3.12 µM in [6]. The TGI in [7] is 3.04 µM; in [8] it was 3.22 µM; in test [9] it was 3.36 µM.
With `COc1ccccc1-n1c(SCc2cc(OC)c(OC)c(OC)c2)nc2ccc(Cl)cc2c1=O`, the GI50 in test [1] is 1.46 µM; in [2] it was 1.46 µM; in test [4], 8.52 µM; in [5] it was 3.41 µM; in test [10], 13.3 µM; in [6] it was 3.03 µM. Further, the figures for the GI50 in [7], in [8] and in test [9] were 3.72 µM, 7.07 µM and 9.4 µM, respectively. The TGI in [1] is over 100 µM; in test [2], over 100 µM; in [4], over 100 µM; in [5], 19.6 µM; in test [10], over 100 µM; in [6], over 100 µM. For the same compound, the TGI in test [7], in test [8] and in test [9] was over 100 µM each time.
